Source: patent US10869931B2, “Polyethylene glycol-modified angiogenesis inhibitor HM-1 and application thereof” (NANJING ANJI BIOLOGICAL TECHNOLOGY CO.,LTD, priority 2016, dated 2020)
Marks after values point to notes of the source that are not given here. Where no end group is shown, it is not given here.

What was measured:
[1] = system: retinal neovascular clusters in OIR C57/B16 mice; assay: Retinal blood vessels in OIR mice; assay type: in vivo, mouse; settings: for Neovascular clusters area: retina evaluated on day 17; for Inhibition rate: neovascular clusters area vs control, day 17
In short: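 C57/B16 pups and mothers were held in 75% oxygen from postnatal day 7 to 12, then returned to room air. On day 13 the PEGylated HM-1 conjugates or saline were given by intravitreal injection; on day 17 retinal vessels were assessed after intracardiac Texas Red-tomato lectin, circulated 5 min.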

[2] = system: xylene-induced ear swelling in Kunming mice; assay: Xylene-induced ear swelling in mice; assay type: in vivo, mouse; settings: for Swelling: 2 h after xylene; for Inhibition rate: ear swelling vs control
In short: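 Kunming mice were dosed once daily for 5 days (aspirin 200 mg/kg as positive control, saline as blank). One hour after the last dose, xylene was applied to the right ear, with the left ear as untreated reference. Ear punches were weighed 2 h later; swelling degree = right − left weight, rate = degree/left weight ×100%.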

[3] = system: Lung cancer tumor cells; assay: MTT proliferation inhibition, lung cancer cells; assay type: cell-based, human; parameters: concentration or dose not given beside the values; settings: 48 h
In short: (§1)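 Tumour cells plated at 2×10^4 cells/mL, attached overnight, then exposed to dilutions of mPEG-HM-1 for 48 h at 37 °C, 5% CO2. MTT added 4 h, formazan dissolved in DMSO, absorbance 570/630 nm; growth inhibition = 1 − treated/untreated, three independent repeats, mean±SD.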

[4] = system: Colorectal cancer tumor cells; assay: MTT proliferation inhibition, colorectal cancer cells; assay type: cell-based, human; parameters: concentration or dose not given beside the values; settings: 48 h
In short: as §1

[5] = system: mouse spleen lymphocytes; assay: ConA-stimulated mouse spleen lymphocyte proliferation (MTT); assay type: cell-based; settings: ConA 5 μg/mL, 48 h
In short: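 Spleen cells, red cells lysed with Tris-NH4Cl, plated at 5×10^6/mL in RPMI 1640 with 10% calf serum alongside blank, ConA and Dex (0.02 mg/mL) groups. After 48 h at 37° C., MTT added for 4 h, formazan dissolved in DMSO, OD read at 570 nm, 5 replicates.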

[6] = system: IL-1β production by mouse peritoneal macrophages; assay: IL-1β production by mouse peritoneal macrophages (ELISA); assay type: cell-based; settings: 48 h
In short: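 Starch-elicited mouse peritoneal macrophages (2×10^6 cells/mL), adhered 3 h, treated with low, medium and high concentrations of mPEG-HM-1 for 48 h; dexamethasone as positive control. Supernatant IL-1β quantified by sandwich ELISA at OD450.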

[7] = 160 mg/kg once daily for 5 days

Row | Substance | Swelling ([2]; 40 mg/kg once daily for 5 days) | Inhibition rate ([2]; 40 mg/kg once daily for 5 days) | Swelling ([2]; 80 mg/kg once daily for 5 days) | Inhibition rate ([2]; 80 mg/kg once daily for 5 days) | rate of growth inhibition [3] | rate of growth inhibition [4] | A570 nm/A630 nm ([5]; 40 μg/mL) | Inhibition Rate of spleen lymphocyte proliferation ([5]; 40 μg/mL) | A570 nm/A630 nm ([5]; 80 μg/mL) | Inhibition Rate of spleen lymphocyte proliferation ([5]; 80 μg/mL) | IL-1β ([6]; 40 μg/mL) | Inhibition Rate of IL-1β production ([6]; 40 μg/mL) | IL-1β ([6]; 80 μg/mL) | Inhibition Rate of IL-1β production ([6]; 80 μg/mL) | also measured
1 | mPEG-bALD20k-Arg-Gly-Ala-Asp-Arg-Ala-Gly-Gly-Gly-Gly-Arg-Gly-Asp ({mPEG‑bALD 20 kDa}-RGADRAGGGGRGD) [mPEG-bALD20k-HM-1] | 4.64 ± 0.34* mg | 23.62% | 3.78 ± 0.27** mg | 37.76% | 65.31 ± 15.54% | 70.73 ± 16.92% | 0.4988 ± 0.1173 | 28.10% | 0.4453 ± 0.1054 | 35.82% | 640.26 ± 14.28 pg/mL | 30.57% | 487.37 ± 12.06 pg/mL | 47.15% | Neovascular clusters area ([1]; 100 μg intravitreal injection on day 13): 0.097 ± 0.011 mm^2; Inhibition rate ([1]; 100 μg intravitreal): 56.22%**; Swelling ([2]; 20 mg/kg once daily for 5 days): 5.03 ± 0.18 mg; Inhibition rate ([2]; 20 mg/kg once daily for 5 days): 17.13%; A570 nm/A630 nm ([5]; 20 μg/mL): 0.6104 ± 0.1005; Inhibition Rate of spleen lymphocyte proliferation ([5]; 20 μg/mL): 12.02%; IL-1β ([6]; 20 μg/mL): 738.66 ± 12.81 pg/mL; Inhibition Rate of IL-1β production ([6]; 20 μg/mL): 19.90%
2 | mPEG-bALD40k-Arg-Gly-Ala-Asp-Arg-Ala-Gly-Gly-Gly-Gly-Arg-Gly-Asp ({mPEG‑bALD 40 kDa}-RGADRAGGGGRGD) [mPEG-bALD40k-HM-1] | 5.25 ± 0.12 mg | 13.45% | 4.68 ± 0.72* mg | 22.94% | 56.47 ± 14.15% | 66.90 ± 16.27% | 0.6191 ± 0.0986 | 10.77% | 0.5089 ± 0.1230 | 26.65% | 740.78 ± 16.79 pg/mL | 19.67% | 648.10 ± 14.55 pg/mL | 29.72% | Neovascular clusters area ([1]; 200 μg intravitreal injection on day 13): 0.110 ± 0.012 mm^2; Inhibition rate ([1]; 200 μg intravitreal): 50.31%**; Swelling [2, 7]: 4.06 ± 0.26** mg; Inhibition rate [2, 7]: 33.09%; A570 nm/A630 nm ([5]; 160 μg/mL): 0.4848 ± 0.1146; Inhibition Rate of spleen lymphocyte proliferation ([5]; 160 μg/mL): 30.12%; IL-1β ([6]; 160 μg/mL): 518.91 ± 12.90 pg/mL; Inhibition Rate of IL-1β production ([6]; 160 μg/mL): 43.73%
